Measured values reported in US20220306695A1, “COMPSTATIN ANALOGUES AND THEIR MEDICAL USES” (priority 2019, published 2022).
Starred links: 1 amine or outer side, 2 acyl side, 3 side chain; linkers in the order of their positions; H or OH if unused. Positions of bridges follow the written chain, without caps; N, C: chain ends. Non-standard residues stand in square brackets, D forms with d. Residues, ends and D or L forms follow the SMILES beside them. Groups on a side chain read outwards from the residue. *: point of attachment. Trp(1-Me) = Cn1cc(C[C@H](N)C(=O)O)c2ccccc21; C18 diacid = O=C(O)CCCCCCCCCCCCCCCCC(=O)*; γGlu = O=C(O)[C@H](CCC(=O)[*:2])N[*:1]; 2Nal = N[C@@H](Cc1ccc2ccccc2c1)C(=O)O; Sar = CNCC(=O)O

Tests used:
[1] = Solubility test at 10 mg/mL (visual inspection and light scattering); assay type: physicochemical; settings: for Solubility, Condition 1 Acetate pH 4: 10 mg/mL compound in 100 mM acetate pH 4; for Solubility, Condition 2 Acetate pH 5: 10 mg/mL compound in 100 mM acetate pH 5; for Solubility, Condition 3 Phosphate pH 6: 10 mg/mL compound in 100 mM phosphate pH 6; for Solubility, Condition 4 Phosphate pH 7: 10 mg/mL compound in 100 mM phosphate pH 7; for Solubility, Condition 5 Phosphate pH 7.5: 10 mg/mL compound in 100 mM phosphate pH 7.5
[2] = test system: classical complement pathway; assay: In vitro haemolysis assay (inhibition of classical complement pathway); assay type: cell-based, human; settings: Table 3; human serum, sensitized sheep red blood cells; read-out: IC50[nM], in vitro analysis of inhibition of hemolysis
How it was run: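 Serially diluted compound (9 points) was preincubated 15 min at room temperature with diluted human serum, titrated per batch to give 70-90% maximal haemolysis, in Tris/casein buffer pH 7.4 with Mg2+/Ca2+. Antibody-sensitized sheep erythrocytes were then added for 30 min at 37° C, and the reaction was stopped with EDTA. Haemolysis was read at A405, with IC50 from 4PL fit.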

| Compound | Solubility, Condition 1 Acetate pH 4 [1] | Solubility, Condition 2 Acetate pH 5 [1] | Solubility, Condition 3 Phosphate pH 6 [1] | Solubility, Condition 4 Phosphate pH 7 [1] | Solubility, Condition 5 Phosphate pH 7.5 [1] | IC50 [2] |
| --- | --- | --- | --- | --- | --- | --- |
| CC[C@H](C)[C@H](NC(=O)[C@H](C)NC(=O)[C@H](CO)NC(=O)CNC(=O)[C@H](CCC(=O)O)NC(C)=O)C(=O)N[C@H]1CSSC[C@@H](C(=O)N(C)CC(=O)N[C@@H](CCC(=O)O)C(N)=O)NC(=O)[C@H](CCCNC(=N)N)NC(=O)[C@H](Cc2c[nH]cn2)NC(=O)[C@H](CCC(=O)O)NC(=O)CNC(=O)[C@H](Cc2c[nH]c3ccccc23)NC(=O)[C@H](CC(=O)O)NC(=O)[C@H](CCC(N)=O)NC(=O)[C@H](Cc2ccc3ccccc3c2)NC(=O)[C@H]([C@@H](C)CC)NC1=O [Compound 50] (Ac-EGSAICI[2Nal]QDWGEHRC[Sar]E-NH2; disulfide 6-16) | − (denotes lack of solubility at the given condition, as UV absorbance at 340 nm exceeds 0.1 AU and/or it is visibly turbid or contains particles.) | − (denotes lack of solubility at the given condition, as UV absorbance at 340 nm exceeds 0.1 AU and/or it is visibly turbid or contains particles.) | + (denotes solubility at the given condition, as determined by UV absorbance being less than 0.1 AU at 340 nm and the sample being clear when manually inspected.) | + (denotes solubility at the given condition, as determined by UV absorbance being less than 0.1 AU at 340 nm and the sample being clear when manually inspected.) | + (denotes solubility at the given condition, as determined by UV absorbance being less than 0.1 AU at 340 nm and the sample being clear when manually inspected.) | < 100 nM |
| CC[C@H](C)[C@@H]1NC(=O)[C@@H](NC(=O)[C@@H](NC(=O)[C@H](CCC(=O)O)NC(=O)[C@H](CO)NC(=O)[C@H](CCC(=O)O)NC(C)=O)[C@@H](C)CC)CSSC[C@@H](C(=O)N[C@H](C(N)=O)[C@@H](C)O)NC(=O)[C@H](CCCNC(=N)N)NC(=O)[C@H](Cc2c[nH]cn2)NC(=O)[C@H](CCC(=O)O)NC(=O)CNC(=O)[C@H](Cc2c[nH]c3ccccc23)NC(=O)[C@H](CC(=O)O)NC(=O)[C@H](CCC(N)=O)NC(=O)[C@H](Cc2c[nH]c3ccccc23)NC1=O [Compound 31] (Ac-ESEICIWQDWGEHRCT-NH2; disulfide 5-15) | + (denotes solubility at the given condition, as determined by UV absorbance being less than 0.1 AU at 340 nm and the sample being clear when manually inspected.) | + (denotes solubility at the given condition, as determined by UV absorbance being less than 0.1 AU at 340 nm and the sample being clear when manually inspected.) | + (denotes solubility at the given condition, as determined by UV absorbance being less than 0.1 AU at 340 nm and the sample being clear when manually inspected.) | + (denotes solubility at the given condition, as determined by UV absorbance being less than 0.1 AU at 340 nm and the sample being clear when manually inspected.) | + (denotes solubility at the given condition, as determined by UV absorbance being less than 0.1 AU at 340 nm and the sample being clear when manually inspected.) | < 100 nM |
| CC[C@H](C)[C@@H]1NC(=O)[C@@H](NC(=O)[C@H](Cc2ccc(O)cc2)NC(=O)[C@H](CCC(=O)O)NC(=O)[C@H](CO)NC(C)=O)CSSC[C@@H](C(=O)N(C)CC(=O)N[C@@H](CCC(=O)O)C(=O)NCC(=O)N[C@@H](CCC(=O)O)C(=O)N[C@@H](CCCCNC(=O)CC[C@H](NC(=O)CNC(=O)CC[C@H](NC(=O)CCCCCCCCCCCCCCCCC(=O)O)C(=O)O)C(=O)O)C(N)=O)NC(=O)[C@H](CCCNC(=N)N)NC(=O)[C@H](Cc2c[nH]cn2)NC(=O)[C@H](CCC(=O)O)NC(=O)CNC(=O)[C@H](Cc2c[nH]c3ccccc23)NC(=O)[C@H](CC(=O)O)NC(=O)[C@H](CCC(N)=O)NC(=O)[C@H](Cc2cn(C)c3ccccc23)NC1=O [Compound 114] (Ac-SEYCI[Trp(1-Me)]QDWGEHRC[Sar]EGEK([γGlu-Gly-γGlu-C18 diacid])-NH2; disulfide 4-14) | + (denotes solubility at the given condition, as determined by UV absorbance being less than 0.1 AU at 340 nm and the sample being clear when manually inspected.) | + (denotes solubility at the given condition, as determined by UV absorbance being less than 0.1 AU at 340 nm and the sample being clear when manually inspected.) | + (denotes solubility at the given condition, as determined by UV absorbance being less than 0.1 AU at 340 nm and the sample being clear when manually inspected.) | + (denotes solubility at the given condition, as determined by UV absorbance being less than 0.1 AU at 340 nm and the sample being clear when manually inspected.) | + (denotes solubility at the given condition, as determined by UV absorbance being less than 0.1 AU at 340 nm and the sample being clear when manually inspected.) | < 500 nM |
| CC[C@H](C)[C@@H]1NC(=O)[C@@H](NC(=O)[C@H](Cc2ccccc2)NC(=O)[C@H](CCC(=O)O)NC(=O)[C@H](CO)NC(C)=O)CSSC[C@@H](C(=O)N[C@H](C(=O)N[C@@H](CCC(=O)O)C(=O)N[C@@H](C)C(N)=O)[C@@H](C)O)NC(=O)[C@H](CCCNC(=N)N)NC(=O)[C@H](Cc2c[nH]cn2)NC(=O)[C@H](CCC(=O)O)NC(=O)CN(C)C(=O)[C@H](Cc2c[nH]c3ccccc23)NC(=O)[C@H](CC(=O)O)NC(=O)[C@H](CCC(N)=O)NC(=O)[C@H](Cc2cn(C)c3ccccc23)NC1=O [Compound 77, Ac-SEFC(1)I[1-Me-Trp]QDW[Sar]EHRC(1)TEA-NH2] (Ac-SEFCI[Trp(1-Me)]QDW[Sar]EHRCTEA-NH2; disulfide 4-14) | − (denotes lack of solubility at the given condition, as UV absorbance at 340 nm exceeds 0.1 AU and/or it is visibly turbid or contains particles.) | − (denotes lack of solubility at the given condition, as UV absorbance at 340 nm exceeds 0.1 AU and/or it is visibly turbid or contains particles.) | + (denotes solubility at the given condition, as determined by UV absorbance being less than 0.1 AU at 340 nm and the sample being clear when manually inspected.) | + (denotes solubility at the given condition, as determined by UV absorbance being less than 0.1 AU at 340 nm and the sample being clear when manually inspected.) | + (denotes solubility at the given condition, as determined by UV absorbance being less than 0.1 AU at 340 nm and the sample being clear when manually inspected.) | < 100 nM |
| CC[C@H](C)[C@@H]1NC(=O)[C@@H](NC(=O)[C@H](Cc2ccc(O)cc2)NC(=O)[C@H](CCC(=O)O)NC(=O)[C@H](CO)NC(=O)CNC(=O)[C@H](CCC(=O)O)NC(=O)CCCCCCCCCCCCCCCCC(=O)O)CSSC[C@@H](C(=O)N(C)CC(=O)N[C@@H](CCC(=O)O)C(N)=O)NC(=O)[C@H](CCCNC(=N)N)NC(=O)[C@H](Cc2c[nH]cn2)NC(=O)[C@H](CCC(=O)O)NC(=O)CNC(=O)[C@H](Cc2c[nH]c3ccccc23)NC(=O)[C@H](CC(=O)O)NC(=O)[C@H](CCC(N)=O)NC(=O)[C@H](Cc2cn(C)c3ccccc23)NC1=O [Compound 108] ({C18 diacid}-EGSEYCI[Trp(1-Me)]QDWGEHRC[Sar]E-NH2; disulfide 6-16) | − (denotes lack of solubility at the given condition, as UV absorbance at 340 nm exceeds 0.1 AU and/or it is visibly turbid or contains particles.) | − (denotes lack of solubility at the given condition, as UV absorbance at 340 nm exceeds 0.1 AU and/or it is visibly turbid or contains particles.) | + (denotes solubility at the given condition, as determined by UV absorbance being less than 0.1 AU at 340 nm and the sample being clear when manually inspected.) | + (denotes solubility at the given condition, as determined by UV absorbance being less than 0.1 AU at 340 nm and the sample being clear when manually inspected.) | + (denotes solubility at the given condition, as determined by UV absorbance being less than 0.1 AU at 340 nm and the sample being clear when manually inspected.) | < 500 nM |
| CC[C@H](C)[C@@H]1NC(=O)[C@@H](NC(=O)[C@H](Cc2ccccc2)NC(=O)[C@H](CCC(=O)O)NC(C)=O)CSSC[C@@H](C(=O)N(C)CC(=O)N[C@@H](CCC(=O)O)C(=O)N[C@@H](C)C(N)=O)NC(=O)[C@H](CCCNC(=N)N)NC(=O)[C@H](Cc2c[nH]cn2)NC(=O)[C@H](CCC(=O)O)NC(=O)CNC(=O)[C@H](Cc2c[nH]c3ccccc23)NC(=O)[C@H](CC(=O)O)NC(=O)[C@H](CCC(N)=O)NC(=O)[C@H](Cc2cn(C)c3ccccc23)NC1=O [Compound 80] (Ac-EFCI[Trp(1-Me)]QDWGEHRC[Sar]EA-NH2; disulfide 3-13) | − (denotes lack of solubility at the given condition, as UV absorbance at 340 nm exceeds 0.1 AU and/or it is visibly turbid or contains particles.) | − (denotes lack of solubility at the given condition, as UV absorbance at 340 nm exceeds 0.1 AU and/or it is visibly turbid or contains particles.) | + (denotes solubility at the given condition, as determined by UV absorbance being less than 0.1 AU at 340 nm and the sample being clear when manually inspected.) | + (denotes solubility at the given condition, as determined by UV absorbance being less than 0.1 AU at 340 nm and the sample being clear when manually inspected.) | + (denotes solubility at the given condition, as determined by UV absorbance being less than 0.1 AU at 340 nm and the sample being clear when manually inspected.) | < 100 nM |
